# Results as given in PMC8185074, “Anchor extension: a structure-guided approach to design cyclic peptides targeting enzyme active sites” (Nature Communications, 2021).
# Peptide text beside a SMILES is read from it.
# Legend:
# HDAC2 = target: T1, HDAC2 (Homo sapiens, UniProt Q92769); experiment: HDAC2 inhibition, full IC50 measurement (Reaction Biology; fluorogenic p53 peptide RHKK(Ac)AMC); type: biochemical
# T1 construct: purchased Reaction Biology Corporation (assay run by the CRO)
# Description: (§1) The assay was performed using 50 μM fluorogenic peptide from p53 residues 379-382 [RHKK(Ac)AMC] in a base reaction buffer of 50 mM Tris-HCl at pH 8.0, 137 mM NaCl, 2.7 mM KCl, 1 mM MgCl2, and freshly added 1 mg/ml BSA and 1% DMSO. Peptides were first dissolved in DMSO and then added to the reaction mixture with the enzyme using acoustic technique, enough to reach the desired concentration for that assay point. Peptide concentrations were calculated based on mass of lyophilized peptide and its molecular weight. The substrate was then added and incubated for 1 hour at 30 °C in a sealed container. After the incubation, developer was added to stop the reaction and develop color. Kinetic measurements were then performed for 20 min with Envision with 5 min intervals (Ex/Em = 360/460 nm). The endpoint after plateau was taken for IC50 measurement.
# (§2) In cases where duplicate measures are used, average data is reported in the main text or Supplementary Tables.
# HDAC6 = target: T2, HDAC6 (Homo sapiens, UniProt Q9UBN7); experiment: HDAC6 inhibition, full IC50 measurement (Reaction Biology; fluorogenic p53 peptide RHKK(Ac)AMC); type: biochemical
# T2 construct: purchased Reaction Biology Corporation (assay run by the CRO)
# T2 sequence (Q9UBN7 1-1215): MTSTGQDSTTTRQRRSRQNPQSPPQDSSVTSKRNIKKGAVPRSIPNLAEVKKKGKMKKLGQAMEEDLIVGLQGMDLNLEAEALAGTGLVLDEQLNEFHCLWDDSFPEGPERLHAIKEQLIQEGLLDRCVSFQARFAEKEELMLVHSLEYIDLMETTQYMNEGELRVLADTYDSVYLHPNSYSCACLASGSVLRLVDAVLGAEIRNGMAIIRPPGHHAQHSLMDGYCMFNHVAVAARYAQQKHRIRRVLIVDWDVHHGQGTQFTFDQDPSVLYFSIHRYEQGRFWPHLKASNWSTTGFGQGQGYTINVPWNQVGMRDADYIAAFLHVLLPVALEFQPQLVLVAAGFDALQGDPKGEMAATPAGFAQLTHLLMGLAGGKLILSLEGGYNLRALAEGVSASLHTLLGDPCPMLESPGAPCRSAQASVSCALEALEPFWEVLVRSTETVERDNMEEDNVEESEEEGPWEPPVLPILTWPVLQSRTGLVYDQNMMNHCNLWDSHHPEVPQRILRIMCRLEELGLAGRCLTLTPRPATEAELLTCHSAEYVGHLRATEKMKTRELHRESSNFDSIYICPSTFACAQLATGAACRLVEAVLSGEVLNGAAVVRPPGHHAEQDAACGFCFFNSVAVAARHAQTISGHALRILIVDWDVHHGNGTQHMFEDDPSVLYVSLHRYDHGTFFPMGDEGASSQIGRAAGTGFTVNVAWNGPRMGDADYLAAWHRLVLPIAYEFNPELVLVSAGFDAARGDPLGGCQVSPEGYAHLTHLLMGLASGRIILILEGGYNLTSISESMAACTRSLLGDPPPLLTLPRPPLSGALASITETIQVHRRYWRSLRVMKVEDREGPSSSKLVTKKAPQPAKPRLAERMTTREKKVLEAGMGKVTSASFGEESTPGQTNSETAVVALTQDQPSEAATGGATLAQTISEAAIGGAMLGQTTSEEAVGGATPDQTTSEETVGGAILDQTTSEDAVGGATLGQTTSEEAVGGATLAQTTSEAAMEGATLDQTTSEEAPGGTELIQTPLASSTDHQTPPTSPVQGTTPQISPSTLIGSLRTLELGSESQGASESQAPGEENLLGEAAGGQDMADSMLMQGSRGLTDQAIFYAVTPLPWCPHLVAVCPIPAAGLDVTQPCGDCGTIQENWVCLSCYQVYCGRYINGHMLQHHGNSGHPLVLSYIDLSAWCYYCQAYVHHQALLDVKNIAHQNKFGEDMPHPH
# Description: as §1, §2
# T1 sequence (Q92769 whole entry): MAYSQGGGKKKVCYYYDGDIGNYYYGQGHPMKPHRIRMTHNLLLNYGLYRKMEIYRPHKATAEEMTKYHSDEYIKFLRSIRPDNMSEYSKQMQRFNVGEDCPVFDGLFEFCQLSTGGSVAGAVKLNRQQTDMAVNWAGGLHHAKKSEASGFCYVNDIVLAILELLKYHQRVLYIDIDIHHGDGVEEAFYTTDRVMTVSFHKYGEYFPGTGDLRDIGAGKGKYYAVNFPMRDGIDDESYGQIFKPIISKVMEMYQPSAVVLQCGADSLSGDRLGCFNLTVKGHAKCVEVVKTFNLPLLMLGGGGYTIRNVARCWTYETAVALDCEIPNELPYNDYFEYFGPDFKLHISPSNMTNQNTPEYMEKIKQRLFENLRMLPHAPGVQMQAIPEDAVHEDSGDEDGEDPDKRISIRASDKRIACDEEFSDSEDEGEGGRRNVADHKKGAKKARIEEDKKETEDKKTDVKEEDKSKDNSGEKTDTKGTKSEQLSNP
smiles,measurement,setting,value
"CCCC[C@H]1NC(=O)[C@H](Cc2ccccc2)NC(=O)[C@H](CCCCCS)NC(=O)[C@@H](CO)NC(=O)[C@H](CC(=O)O)NC(=O)[C@@H](CO)NC(=O)[C@@H](C)NC(=O)[C@H](CCCCN)NC1=O [des4.3.1.1, SHA-Phe-dNle-Lys-dAla-dSer-Asp-dSer] (HELM PEPTIDE1{D.[dS].[O=C([C@H](CCCCCS)N[*:1])[*:2]].F.[CCCC[C@@H](N[*:1])C(=O)[*:2]].K.[dA].[dS]}$PEPTIDE1,PEPTIDE1,1:R1-8:R2$$$V2.0)",HDAC2 activity raw data (signal),"HDAC2; Conc. 1.00E-05 M, t1",1283086
same,HDAC2 activity raw data (signal),"HDAC2; Conc. 1.00E-05 M, t2",1486401
same,HDAC2 activity raw data (signal),"HDAC2; Conc. 1.11E-06 M, t1",1660902
same,HDAC2 activity raw data (signal),"HDAC2; Conc. 1.11E-06 M, t2",1799195
same,HDAC2 activity raw data (signal),"HDAC2; Conc. 1.23E-07 M, t1",1764651
same,HDAC2 activity raw data (signal),"HDAC2; Conc. 1.23E-07 M, t2",1879798
same,HDAC2 activity raw data (signal),"HDAC2; Conc. 1.37E-08 M, t1",1818162
same,HDAC2 activity raw data (signal),"HDAC2; Conc. 1.37E-08 M, t2",1980324
same,HDAC2 activity raw data (signal),"HDAC2; Conc. 1.52E-09 M, t1",1787655
same,HDAC2 activity raw data (signal),"HDAC2; Conc. 1.52E-09 M, t2",1860263
same,HDAC2 activity raw data (signal),"HDAC2; Conc. 3.33E-06 M, t1",1631295
same,HDAC2 activity raw data (signal),"HDAC2; Conc. 3.33E-06 M, t2",1725891
same,HDAC2 activity raw data (signal),"HDAC2; Conc. 3.70E-07 M, t1",1679365
same,HDAC2 activity raw data (signal),"HDAC2; Conc. 3.70E-07 M, t2",1920676
same,HDAC2 activity raw data (signal),"HDAC2; Conc. 4.12E-08 M, t1",1853084
same,HDAC2 activity raw data (signal),"HDAC2; Conc. 4.12E-08 M, t2",2007168
same,HDAC2 activity raw data (signal),"HDAC2; Conc. 4.57E-09 M, t1",1817065
same,HDAC2 activity raw data (signal),"HDAC2; Conc. 4.57E-09 M, t2",1855125
same,HDAC2 activity raw data (signal),"HDAC2; Conc. 5.08E-10 M, t1",1872757
same,HDAC2 activity raw data (signal),"HDAC2; Conc. 5.08E-10 M, t2",1875796
same,6-Selectivity: fold potency for HDAC6 over HDAC2,HDAC6,31.25 fold
same,HDAC6 activity raw data (signal),"HDAC6; Conc. 1.00E-05 M, t1",121881
same,HDAC6 activity raw data (signal),"HDAC6; Conc. 1.00E-05 M, t2",130414
same,HDAC6 activity raw data (signal),"HDAC6; Conc. 1.11E-06 M, t1",580651
same,HDAC6 activity raw data (signal),"HDAC6; Conc. 1.11E-06 M, t2",615445
same,HDAC6 activity raw data (signal),"HDAC6; Conc. 1.23E-07 M, t1",1294999
same,HDAC6 activity raw data (signal),"HDAC6; Conc. 1.23E-07 M, t2",1440536
same,HDAC6 activity raw data (signal),"HDAC6; Conc. 1.37E-08 M, t1",1520011
same,HDAC6 activity raw data (signal),"HDAC6; Conc. 1.37E-08 M, t2",1756812
same,HDAC6 activity raw data (signal),"HDAC6; Conc. 1.52E-09 M, t1",1628369
same,HDAC6 activity raw data (signal),"HDAC6; Conc. 1.52E-09 M, t2",1677368
same,HDAC6 activity raw data (signal),"HDAC6; Conc. 3.33E-06 M, t1",268413
same,HDAC6 activity raw data (signal),"HDAC6; Conc. 3.33E-06 M, t2",332099
same,HDAC6 activity raw data (signal),"HDAC6; Conc. 3.70E-07 M, t1",971918
same,HDAC6 activity raw data (signal),"HDAC6; Conc. 3.70E-07 M, t2",981413
same,HDAC6 activity raw data (signal),"HDAC6; Conc. 4.12E-08 M, t1",1459081
same,HDAC6 activity raw data (signal),"HDAC6; Conc. 4.12E-08 M, t2",1648611
same,HDAC6 activity raw data (signal),"HDAC6; Conc. 4.57E-09 M, t1",1570327
same,HDAC6 activity raw data (signal),"HDAC6; Conc. 4.57E-09 M, t2",1728944
same,HDAC6 activity raw data (signal),"HDAC6; Conc. 5.08E-10 M, t1",1620579
same,HDAC6 activity raw data (signal),"HDAC6; Conc. 5.08E-10 M, t2",1733616
